One test has as its target PTP1B-FL (Homo sapiens, UniProt P18031). The test is described as follows: cell-based.
A further test deals with CD45. The format is cell-based.
Test [1] relates to PTPs (PTP1B-FL, CD45-cat and CD45-FL). Type of test: cell-based.
Another test has as its system recombinant PTP1B. The settings on record: oxidizing its catalytic site cysteine; cited from earlier work.
A further test relates to CD45-cat. Type of test: cell-based. The following applies: infected sf9 cells, 10 mM pNPP.
The test system of test [2] is background phosphatases in mock-infected sf9 cells. Type of test: cell-based, fall armyworm Spodoptera. The settings on record: for effect on background phosphatases: infected sf9 cells, 10 mM pNPP.
The subject of another test is PTP. The following applies: cited from earlier work.

Where two headings read alike, the source gives them in different places.

Sequence of PTP1B-FL (P18031 whole entry): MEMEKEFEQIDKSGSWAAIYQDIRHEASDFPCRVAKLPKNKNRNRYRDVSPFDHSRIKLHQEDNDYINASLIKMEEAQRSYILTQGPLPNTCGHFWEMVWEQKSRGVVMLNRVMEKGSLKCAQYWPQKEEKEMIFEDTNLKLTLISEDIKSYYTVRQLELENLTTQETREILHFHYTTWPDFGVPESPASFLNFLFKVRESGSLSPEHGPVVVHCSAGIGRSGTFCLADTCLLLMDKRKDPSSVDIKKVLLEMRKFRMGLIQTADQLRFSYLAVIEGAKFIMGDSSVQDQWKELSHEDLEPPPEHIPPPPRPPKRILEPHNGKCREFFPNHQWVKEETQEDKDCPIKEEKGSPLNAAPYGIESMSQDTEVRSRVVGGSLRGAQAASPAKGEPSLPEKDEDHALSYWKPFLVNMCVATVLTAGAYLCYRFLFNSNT

The IC50 is the concentration needed to halve the response being measured. On to `OO` [hydrogen peroxide], for which the results for the IC50 (at PTP1B-FL; with CD45 (read-out: IC50 range); in test [1] (read-out: IC50 values in the range of)) were 10 to 15 µM, 10 to 15 µM and 7 to 16 µM, respectively. Moreover, the “potency and selectivity in words” value in test [1] (intact sf9 cells, 10 mM pNPP) is “limited potency and selectivity”. The “inactivation of recombinant PTP1B in vitro” value with recombinant PTP1B is recorded as “inactivate recombinant PTP1B in vitro”.
For `C=C1[C@@H](O)[C@@H]2O[C@]3(CC[C@H](/C=C/[C@@H](C)[C@@H]4CC(C)=C[C@@]5(O[C@H](C[C@@](C)(O)C(=O)O)CC[C@H]5O)O4)O3)CC[C@H]2O[C@@H]1[C@@H](O)C[C@H](C)[C@H]1O[C@@]2(CCCCO2)CC[C@H]1C` [okadaic acid], the “effect on CD45-cat phosphatase” value in the test with CD45-cat (okadaic acid at 6.7 μM) is on record as “Neither ouabain at 1 mM or okadaic acid at 6.7 μM had any effect”. Moreover, the “effect on background phosphatases” value in test [2] (okadaic acid at 6.7 μM) is on record as “Neither ouabain at 1 mM or okadaic acid at 6.7 μM had any effect”. Besides, the “effect on pNPP hydrolysis” value in test [1] is reported as “had no effect”.
Turning to `C[C@@H]1O[C@@H](O[C@H]2C[C@@H](O)[C@]3(CO)[C@H]4[C@H](O)C[C@]5(C)[C@@H](C6=CC(=O)OC6)CC[C@]5(O)[C@@H]4CC[C@]3(O)C2)[C@H](O)[C@H](O)[C@H]1O` [ouabain], in the test on CD45-cat (ouabain at 1 mM), the “effect on CD45-cat phosphatase” value is given as “Neither ouabain at 1 mM or okadaic acid at 6.7 μM had any effect”. Besides, in test [2], the “inhibition of background infected cells” value was “no inhibition up to 1 mM”. Also, the “effect on background phosphatases” value in test [2] (ouabain at 1 mM) is “Neither ouabain at 1 mM or okadaic acid at 6.7 μM had any effect”. The “inhibition of CD45 expressing cells” value in the test with CD45 is given as “no inhibition up to 1 mM”.
Take `[Na+].[Na+].[Na+].[O]=[V]([O-])([O-])[O-]` [vanadate, sodium orthovanadate]: the IC50 in test [2] is 1.6 µM. Besides, the “mode of binding at active site” value with PTP was “competitively and reversibly bound at the active site”.

Source of the values: patent US6329137A (priority 2000, dated 2001).
